Legend:
[1] = molecular target: T1, Adenine DNA glycosylase (Homo sapiens) (UniProt Q9UIF7); conditions: Hit No;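 note: human MUTYH activity read as 594 nm fluorescence from cleavage and release of a quenched DNA duplex, coupled with APE1 for strand incision, lower signal meaning inhibition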
T1 sequence (whole entry): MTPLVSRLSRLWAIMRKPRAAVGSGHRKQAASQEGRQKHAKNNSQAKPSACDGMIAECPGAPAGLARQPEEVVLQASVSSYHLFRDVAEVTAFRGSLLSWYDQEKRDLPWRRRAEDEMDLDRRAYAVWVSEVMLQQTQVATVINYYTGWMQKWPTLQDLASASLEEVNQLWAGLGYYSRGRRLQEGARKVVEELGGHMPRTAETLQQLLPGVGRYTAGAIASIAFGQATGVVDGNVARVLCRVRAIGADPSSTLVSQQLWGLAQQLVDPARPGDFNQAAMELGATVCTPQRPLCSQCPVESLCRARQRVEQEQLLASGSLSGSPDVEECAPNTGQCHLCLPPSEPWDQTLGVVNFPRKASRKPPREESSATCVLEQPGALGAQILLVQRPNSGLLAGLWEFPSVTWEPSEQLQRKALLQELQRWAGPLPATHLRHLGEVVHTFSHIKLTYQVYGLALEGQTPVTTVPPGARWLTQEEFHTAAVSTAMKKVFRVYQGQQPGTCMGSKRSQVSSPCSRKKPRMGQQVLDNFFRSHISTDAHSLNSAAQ
Description: Inhibition of MUTYH by quantifying inhibition of MUTYH-mediated cleavage and dissociation of quenched duplex DNA oligonucleotides, measured as fluorescence at 594 nm. To generate a functional strand incision and increase turn-over this assay is coupled to APE1.

[2] = molecular target: Endonuclease 8-like 1 (Homo sapiens) (UniProt Q96FI4); conditions: Hit No;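 note: fluorescence at 594 nm from quenched duplex DNA oligonucleotides released by NEIL1 cleavage and strand separation, reported as reduction of this enzyme activity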
Description: Inhibition of NEIL1 by quantifying inhibition of NEIL1-mediated cleavage and dissociation of quenched duplex DNA oligonucleotides, measured as fluorescence at 594 nm.

[3] = molecular target: T2, Endonuclease 8-like 2 (Homo sapiens) (UniProt Q969S2);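 note: fluorescence at 594 nm reports NEIL2 cutting and release of a quenched double-stranded DNA oligo substrate, reduced signal read as inhibition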
T2 sequence (whole entry): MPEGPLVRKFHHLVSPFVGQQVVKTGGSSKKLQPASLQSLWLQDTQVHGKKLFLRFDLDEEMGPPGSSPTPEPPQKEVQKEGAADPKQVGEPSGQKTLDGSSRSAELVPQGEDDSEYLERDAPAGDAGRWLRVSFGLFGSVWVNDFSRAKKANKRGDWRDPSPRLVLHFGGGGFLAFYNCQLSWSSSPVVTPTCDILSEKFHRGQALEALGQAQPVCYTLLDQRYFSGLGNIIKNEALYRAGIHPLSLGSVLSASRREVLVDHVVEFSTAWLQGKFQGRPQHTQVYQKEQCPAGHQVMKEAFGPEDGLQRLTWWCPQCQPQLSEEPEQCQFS
Description: Inhibition of NEIL2 by quantifying inhibition of NEIL2-mediated cleavage and dissociation of quenched duplex DNA oligonucleotides, measured as fluorescence at 594 nm.

[4] = molecular target: T3, Endonuclease III-like protein 1 (Homo sapiens) (UniProt P78549); conditions: Hit No;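 note: enzyme assay tracking NTHL1 cutting and release of a quenched double-stranded DNA oligo substrate, read as fluorescence at 594 nm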
T3 sequence (whole entry): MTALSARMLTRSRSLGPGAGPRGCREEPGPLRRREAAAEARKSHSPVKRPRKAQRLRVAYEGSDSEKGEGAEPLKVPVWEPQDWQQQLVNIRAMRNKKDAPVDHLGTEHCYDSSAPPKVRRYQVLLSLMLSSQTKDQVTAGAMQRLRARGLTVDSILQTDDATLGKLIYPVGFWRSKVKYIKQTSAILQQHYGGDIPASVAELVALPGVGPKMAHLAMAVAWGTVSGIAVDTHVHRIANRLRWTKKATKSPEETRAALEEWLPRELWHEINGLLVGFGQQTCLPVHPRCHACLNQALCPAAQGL
Description: Inhibition of NTHL1 by quantifying inhibition of NTHL1-mediated cleavage and dissociation of quenched duplex DNA oligonucleotides, measured as fluorescence at 594 nm.

[5] = molecular target: T4, Single-strand selective monofunctional uracil DNA glycosylase (Homo sapiens) (UniProt Q53HV7); conditions: Hit No;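 note: enzymatic SMUG1 assay coupled with APE1, reading fluorescence at 594 nm released when a quenched double-stranded DNA oligonucleotide substrate is cleaved and separated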
T4 sequence (whole entry): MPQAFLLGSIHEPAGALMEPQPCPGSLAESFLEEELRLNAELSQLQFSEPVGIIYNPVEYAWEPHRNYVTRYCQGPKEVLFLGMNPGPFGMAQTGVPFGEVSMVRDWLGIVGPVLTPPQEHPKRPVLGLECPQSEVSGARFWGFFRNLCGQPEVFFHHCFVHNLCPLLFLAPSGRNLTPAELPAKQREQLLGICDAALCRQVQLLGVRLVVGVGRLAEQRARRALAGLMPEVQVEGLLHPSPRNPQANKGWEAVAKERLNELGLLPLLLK
Description: Inhibition of SMUG1 by quantifying inhibition of SMUG1-mediated cleavage and dissociation of quenched duplex DNA oligonucleotides, measured as fluorescence at 594 nm. To generate a functional strand incision and increase turn-over this assay is coupled to APE1.

[6] = molecular target: G/T mismatch-specific thymine DNA glycosylase (Homo sapiens) (UniProt Q13569); conditions: Hit No;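 note: human TDG cleavage of quenched duplex DNA oligonucleotides coupled to APE1, strand release read as fluorescence at 594 nm, inhibition of TDG activity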
Description: Inhibition of TDG by quantifying inhibition of TDG-mediated cleavage and dissociation of quenched duplex DNA oligonucleotides, measured as fluorescence at 594 nm. To generate a functional strand incision and increase turn-over this assay is coupled to APE1.

[7] = molecular target: N-glycosylase/DNA lyase (Homo sapiens) (UniProt O15527); conditions: Hit No;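 note: OGG1 cleavage of a quenched duplex DNA oligonucleotide, coupled to APE1 for strand incision, read as fluorescence at 594 nm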
Description: Inhibition of OGG1 by quantifying inhibition of OGG1-mediated cleavage and dissociation of quenched duplex DNA oligonucleotides, measured as fluorescence at 594 nm. To generate a functional strand incision and increase turn-over this assay is coupled to APE1.

[8] = molecular target: Uracil-DNA glycosylase (Homo sapiens) (UniProt P13051); conditions: Hit No;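 note: UNG excision on a quenched double-stranded DNA oligo probe, with APE1 added for strand incision and turnover, read as fluorescence at 594 nm as strands separate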
Description: Inhibition of UNG by quantifying inhibition of UNG-mediated cleavage and dissociation of quenched duplex DNA oligonucleotides, measured as fluorescence at 594 nm. To generate a functional strand incision and increase turn-over this assay is coupled to APE1.

[9] = molecular target: Methyl-CpG-binding domain protein 4 (Homo sapiens) (UniProt O95243); conditions: Hit No;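 note: MBD4 activity read as fluorescence at 594 nm from cleavage and release of a quenched duplex DNA oligonucleotide, with APE1 coupled to incise the strand and raise turnover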
Description: Inhibition of MBD4 by quantifying inhibition of MBD4-mediated cleavage and dissociation of quenched duplex DNA oligonucleotides, measured as fluorescence at 594 nm. To generate a functional strand incision and increase turn-over this assay is coupled to APE1.

[10] = Compound Concentration 10.0 uM, Hit No
[11] = Compound Concentration 1.0 uM, Hit No

Chain of Methyl-CpG-binding domain protein 4 (Homo sapiens) (O95243 whole entry, the tested form may be a part): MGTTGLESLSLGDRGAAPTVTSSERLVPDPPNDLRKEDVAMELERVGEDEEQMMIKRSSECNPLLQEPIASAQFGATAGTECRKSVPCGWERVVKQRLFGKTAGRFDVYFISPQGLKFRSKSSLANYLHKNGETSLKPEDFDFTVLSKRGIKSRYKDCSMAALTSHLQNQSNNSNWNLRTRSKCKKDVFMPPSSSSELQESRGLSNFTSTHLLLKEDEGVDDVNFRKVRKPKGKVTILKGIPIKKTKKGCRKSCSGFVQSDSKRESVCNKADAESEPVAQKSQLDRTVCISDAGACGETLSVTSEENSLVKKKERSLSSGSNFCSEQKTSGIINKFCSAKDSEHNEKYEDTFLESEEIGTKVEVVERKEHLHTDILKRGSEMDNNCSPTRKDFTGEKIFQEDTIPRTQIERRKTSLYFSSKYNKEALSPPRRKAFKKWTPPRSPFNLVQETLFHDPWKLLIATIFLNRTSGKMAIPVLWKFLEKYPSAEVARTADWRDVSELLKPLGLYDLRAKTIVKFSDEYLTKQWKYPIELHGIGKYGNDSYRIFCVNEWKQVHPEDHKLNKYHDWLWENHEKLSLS
Chain of Endonuclease 8-like 1 (Homo sapiens) (Q96FI4 whole entry): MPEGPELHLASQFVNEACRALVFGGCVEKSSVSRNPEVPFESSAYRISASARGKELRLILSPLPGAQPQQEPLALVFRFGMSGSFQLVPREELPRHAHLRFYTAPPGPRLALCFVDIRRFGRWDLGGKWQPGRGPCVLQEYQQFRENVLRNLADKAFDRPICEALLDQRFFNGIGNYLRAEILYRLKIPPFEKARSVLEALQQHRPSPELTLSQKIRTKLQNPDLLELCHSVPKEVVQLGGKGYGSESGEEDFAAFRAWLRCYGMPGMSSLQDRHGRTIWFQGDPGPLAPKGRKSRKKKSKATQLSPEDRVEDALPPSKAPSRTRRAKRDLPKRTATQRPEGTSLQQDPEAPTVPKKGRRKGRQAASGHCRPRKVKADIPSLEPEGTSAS
Chain of Uracil-DNA glycosylase (Homo sapiens) (P13051 whole entry, the tested form may be a part): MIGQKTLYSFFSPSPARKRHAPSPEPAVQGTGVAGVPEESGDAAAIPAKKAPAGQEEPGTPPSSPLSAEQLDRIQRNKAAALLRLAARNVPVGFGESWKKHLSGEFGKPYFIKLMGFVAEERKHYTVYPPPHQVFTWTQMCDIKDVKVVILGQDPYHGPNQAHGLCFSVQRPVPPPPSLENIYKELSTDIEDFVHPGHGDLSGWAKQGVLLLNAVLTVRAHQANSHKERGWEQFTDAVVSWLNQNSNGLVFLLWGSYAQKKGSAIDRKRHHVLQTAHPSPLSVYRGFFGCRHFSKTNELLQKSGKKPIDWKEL
Chain of G/T mismatch-specific thymine DNA glycosylase (Homo sapiens) (Q13569 whole entry): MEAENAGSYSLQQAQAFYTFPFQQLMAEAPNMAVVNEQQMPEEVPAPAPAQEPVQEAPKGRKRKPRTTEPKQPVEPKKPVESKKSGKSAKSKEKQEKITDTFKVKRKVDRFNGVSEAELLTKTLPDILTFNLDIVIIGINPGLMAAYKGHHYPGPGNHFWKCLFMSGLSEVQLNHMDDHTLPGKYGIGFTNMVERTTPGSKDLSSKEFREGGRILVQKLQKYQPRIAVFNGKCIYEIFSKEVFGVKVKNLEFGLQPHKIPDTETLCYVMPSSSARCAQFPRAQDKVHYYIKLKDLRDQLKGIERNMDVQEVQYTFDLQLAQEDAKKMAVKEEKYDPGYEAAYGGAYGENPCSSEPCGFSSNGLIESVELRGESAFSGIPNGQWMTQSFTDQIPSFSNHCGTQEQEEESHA
Chain of N-glycosylase/DNA lyase (Homo sapiens) (O15527 whole entry): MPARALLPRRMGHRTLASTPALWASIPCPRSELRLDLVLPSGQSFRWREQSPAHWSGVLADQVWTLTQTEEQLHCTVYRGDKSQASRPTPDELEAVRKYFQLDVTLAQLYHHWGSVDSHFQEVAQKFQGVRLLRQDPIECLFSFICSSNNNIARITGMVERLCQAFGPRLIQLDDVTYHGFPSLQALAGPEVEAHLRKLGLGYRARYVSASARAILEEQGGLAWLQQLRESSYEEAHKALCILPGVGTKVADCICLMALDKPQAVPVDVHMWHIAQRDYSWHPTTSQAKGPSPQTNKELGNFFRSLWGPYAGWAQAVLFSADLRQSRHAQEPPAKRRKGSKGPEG

Structure (SMILES)	inhibition ([1]; Compound Concentration 10.0 uM) [%]	inhibition ([2]; Compound Concentration 10.0 uM) [%]	inhibition [3, 10] [%]	inhibition ([4]; Compound Concentration 10.0 uM) [%]	inhibition ([5]; Compound Concentration 10.0 uM) [%]	inhibition ([6]; Compound Concentration 10.0 uM) [%]	inhibition ([7]; Compound Concentration 10.0 uM) [%]	inhibition ([8]; Compound Concentration 10.0 uM) [%]	inhibition ([9]; Compound Concentration 10.0 uM) [%]	inhibition ([1]; Compound Concentration 1.0 uM) [%]	inhibition ([2]; Compound Concentration 1.0 uM) [%]	inhibition [3, 11] [%]	inhibition ([4]; Compound Concentration 1.0 uM) [%]	inhibition ([5]; Compound Concentration 1.0 uM) [%]	inhibition ([6]; Compound Concentration 1.0 uM) [%]	inhibition ([8]; Compound Concentration 1.0 uM) [%]	inhibition ([3]; Compound Concentration 10.0 uM, Hit Yes) [%]	inhibition ([7]; Compound Concentration 1.0 uM) [%]	inhibition ([9]; Compound Concentration 1.0 uM) [%]
OC[C@H]1O[C@@H](n2cnc3c(NC4CCCC4)ncnc32)[C@H](O)[C@@H]1O	9.75	2.61	11.2	7.05	-9.38	-6.42													
CCC(=O)NC[C@@H]1C[C@H]1c1cccc2c1CCO2	2.71	4.24	-7.72	-4.67		4.27	1.29												
O=C(O)c1cc(-c2ccc(C3CCNCC3)cc2)c2ccc(-c3ccc(C(F)(F)F)cc3)cc2c1	10.9	-1.45	1.86	2.15	-1.19	20.1	-4.86	0.968											
CNc1cc(Oc2cc(C(=O)Nc3cc(N4CCN(C)CC4)cc(C(F)(F)F)c3)ccc2C)ncn1	-9.46			11.9	-8.61	76.5		-3.12											
COc1ccc(CN(CCN(C)C)c2ccccn2)cc1	4.88	2.61	-3.23	21.7		2.93	-6.42		-9.78										
OCCn1cc(-c2cnc3nnn(Cc4ccc5ncccc5c4)c3n2)cn1	0.369	2.52	-5.15	-9.68	18.6	49.5	-5.86	-1.44											
COc1ccc(Oc2cc(NCCC(F)(F)F)c3ncc(-c4ccc(C(=O)NC5CC5)c(C)c4)n3n2)c(F)c1F	-2.54			-2	5.15	93.1		0.303											
CN1CCN(c2cc(-c3ccccc3)nc(N)n2)CC1	-4.71	-2.28	7	9.99		1.13		-9.1	-3.57										
CC(C)(C)c1ccc2c(c1)CC[C@H]2NC(=O)Nc1cccc2[nH]ncc12	-7.76	7.86	-4.17	3.04	11.7	-8.31	-2.36	-4.28											
CC(=O)NCCc1c(Cc2ccccc2)[nH]c2ccccc12	0.533	4.1	3.51	2.66		16.3	-9.93												
Cn1cc(-c2[nH]c3cc(NC(=O)[C@H](N)C4CCCCC4)cc4c3c2C=NNC4=O)cn1										-0.0556	-1.18	-5.15	-0.61	19.2	43.2	0.598			
CN(C)C/C=C/C(=O)Nc1cc2c(Nc3ccc(F)c(Cl)c3)ncnc2cc1O[C@H]1CCOC1										19.4			4.97	-1.31	46.9	-1.9			
Cc1nc(C#Cc2ccnc(Cl)c2)c(C)n1-c1ccc(OC(F)(F)F)cc1	14	-9.4	5.26	7.05	5	20.9	-0.162	-8.09											
COc1ccccc1CN[C@H]1C2CCN(CC2)[C@H]1C(c1ccccc1)c1ccccc1	11.2	-4.06	-6.97	-5.41		0.738	-6.59	-4.4											
CSCC[C@H](NC(=O)[C@H](Cc1ccccc1)NC(=O)[C@H](Cc1c[nH]cn1)NC(=O)CNC(=O)[C@@H](NC(=O)[C@H](C)NC(=O)[C@H](Cc1c[nH]c2ccccc12)NC(=O)[C@H](CC(C)C)NC(=O)[C@H](CC(N)=O)NC(=O)CN)[C@@H](C)O)C(N)=O	11.4	10.5	-6.21	8.82		-7.68		-8.29	-1.83										
N[C@@H]1c2cccnc2[C@H](OC(=O)N2CCC(n3c(=O)[nH]c4ncccc43)CC2)CC[C@H]1c1cccc(F)c1F	-2.28	-2.58	0.515	-6.14	-4.73	6.23	-5.76												
C=CCN1C[C@H](C(=O)N(CCCN(C)C)C(=O)NCC)C[C@@H]2c3cccc4[nH]cc(c34)C[C@H]21	1.81	10.6	-3.73	1.92	-9.96	-7.89													
CS(=O)(=O)NC[C@H]1CC[C@H](Nc2nc3c(s2)CCSc2ccccc2-3)CC1	-5.74	-5.25	8.25	34.9	-4.83	2.85	-8.83	-8.36											
CC(C)NCC(O)COc1cccc2ccccc12 (configuration not stated)	3.6	-0.797		13.7	3.41	5.22		-6.12									35		
CNC(=O)Nc1ccc(-c2nc(N3CC4CCC(C3)O4)c3cnn(C4CCC5(CC4)OCCO5)c3n2)cc1	5.83	2.52		2.88	15.7	46.1		6.27											
Cn1cnc2c(F)c(Nc3ccc(Br)cc3Cl)c(C(=O)NOCCO)cc21	-2.18	11.5		-8.28	16.2	39.7		-1.17											
CNc1nc(Nc2cnn([C@H]3CCN(C4COC4)C[C@@H]3F)c2Cl)ncc1C(F)(F)F										-1.03	-2.24		-6.19	15	39.4	2.4		-2.93	
Cc1cccc([C@H](C)c2c[nH]cn2)c1C	5.65	-5.1	7.25	-4.67	-5.51	18.4	-7.75												
NS(=O)(=O)c1cc(NC(=O)Cc2ccccc2)ccc1Oc1cccc(Cl)c1	-0.214	-8.47	-2.53		25.9	87.5	16.9	6.44	54.5										
CCN(Cc1ccc(Cl)cc1)c1ncc(C(=O)NCCCN2CCCC2=O)c(NC2CCCC2)n1	3.34	-2.37	-8.65		17.5	63.4	-2.04	8.58	-8.97										
Nc1c(C(=O)NCc2ccc(C(=O)NCCCC3CCCCC3)cc2)cnn1-c1ccccc1	5.04				-1.31	35.6	19.8	4.78			-2.11	-8.91		3.4	47	-7.24		3.23	59.9

Reference: ChEMBL document CHEMBL5665443, “Enzyme Inhibitor Single Concentration assay results for EUbOPEN Chemogenomics Library” (2024)
